# Data taken from US11076595B2, “1-(n,n-disubstituted carbamoyl) 4-(substituted sulfonyl)triazolin-5-one derivative, 4-(n,n-disubstituted carbamoyl) 1-(substituted sulfonyl)triazolin-5-one derivative, and herbicide containing said derivative as active ingredient” (HOKKO CHEMICAL INDUSTRY CO., LTD., priority 2017, dated 2021).
# Assays:
# Assay type in all cases: in vivo
# Echinochloa crus-galli [1] = assay: Test Example 11: herbicidal effect test by soil treatment in paddy field; conditions: 120 g/10a active ingredient, 14 days after treatment
# Summary of the method: (§1)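 Puddled paddy soil with N:P:K 17:17:17 fertilizer in Wagner pots; 30 seeds per species sown at 0–1 cm, flooded to about 3 cm, kept in a glass greenhouse. Water-diluted emulsifiable concentrate dripped in immediately after sowing at 120 g a.i. per 10 are. Suppression from dry weight versus untreated at 14 days.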
# Lindernia pyxidaria [2] = assay: as above; conditions: 120 g/10a active ingredient, 14 days after treatment
# Summary of the method: as §1
# Monochoria vaginalis [3] = assay: as above; conditions: 120 g/10a active ingredient, 14 days after treatment
# Summary of the method: as §1
# Scirpus juncoides [4] = assay: as above; conditions: 120 g/10a active ingredient, 14 days after treatment
# Summary of the method: as §1
# Echinochloa crus-galli [5] = assay: Test Example 12: herbicidal effect test by treatment during growing period in paddy field; conditions: 120 g/10a; treatment seven days after sowing in flooded paddy pot; assessed 14 days after treatment
# Summary of the method: (§2)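 Growing-period treatment in flooded paddy pots: the diluted emulsifiable concentrate was dripped in at 120 g a.i. per 10 are seven days after seeding. Inhibition is expressed as percent reduction in dry weight versus untreated pots, measured 14 days later in duplicate.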
# Lindernia pyxidaria [6] = assay: as above; conditions: 120 g/10a; treatment seven days after sowing in flooded paddy pot; assessed 14 days after treatment
# Summary of the method: as §2
# Monochoria vaginalis [7] = assay: as above; conditions: 120 g/10a; treatment seven days after sowing in flooded paddy pot; assessed 14 days after treatment
# Summary of the method: as §2
# Scirpus juncoides [8] = assay: as above; conditions: 120 g/10a; treatment seven days after sowing in flooded paddy pot; assessed 14 days after treatment
# Summary of the method: as §2
# Amaranthus viridis [9] = assay: Test Example 13: herbicidal effect test by soil treatment in upland field; conditions: 120 g/10a, 14 days after treatment
# Summary of the method: (§3)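 Field alluvial soil in 36 cm^2 pots had 20 seeds of each weed mixed into its top 1 cm. One day after sowing, a water-diluted emulsifiable concentrate was sprayed onto the soil at 100 liter per 10 are (120 g active ingredient per 10 are), with two replicates. Weed suppression (%) was assessed after 14 days.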
# Chenopodium album [10] = assay: as above; conditions: 120 g/10a, 14 days after treatment
# Summary of the method: as §3
# Echinochloa crus-galli [11] = assay: as above; conditions: 120 g/10a, 14 days after treatment
# Summary of the method: as §3
# crabgrass [12] = assay: as above; conditions: 120 g/10a, 14 days after treatment
# Summary of the method: as §3
# Chenopodium album [13] = assay: Test Example 14: herbicidal effect test by foliage treatment in upland field; conditions: 7 days after sowing, 120 g/10a, 14 days after treatment
# Summary of the method: (§4)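 Post-sowing spray at day 7, 120 g a.i./10 are in 100 L water/10 are; alluvial soil pots, duplicate plots; endpoint day 14, % suppression from dry weight relative to untreated.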
# crabgrass [14] = assay: as above; conditions: 7 days after sowing, 120 g/10a, 14 days after treatment
# Summary of the method: as §4
# Amaranthus viridis [15] = assay: as above; conditions: 7 days after sowing, 120 g/10a, 14 days after treatment
# Summary of the method: as §4
# Echinochloa crus-galli [16] = assay: as above; conditions: 7 days after sowing, 120 g/10a, 14 days after treatment
# Summary of the method: as §4
Compound,Weed suppression rate (%) Echinochloa crus-galli (Echinochloa crus-galli [1]) [%],Weed suppression rate (%) Lindemia pyxidaria (Lindernia pyxidaria [2]) [%],Weed suppression rate (%) Monochoria vaginalis (Monochoria vaginalis [3]) [%],Weed suppression rate (%) Scirpus juncoides (Scirpus juncoides [4]) [%],Weed suppression rate (%) Echinochloa crus-galli (Echinochloa crus-galli [5]) [%],Weed suppression rate (%) Lindemia pyxidaria (Lindernia pyxidaria [6]) [%],Weed suppression rate (%) Monochoria vaginalis (Monochoria vaginalis [7]) [%],Weed suppression rate (%) Scirpus juncoides (Scirpus juncoides [8]) [%],"herbicidal effect, Amaranthus viridis (Amaranthus viridis [9]) [%]","herbicidal effect, Chenopodium album (Chenopodium album [10]) [%]","herbicidal effect, Echinochloa crus-galli (Echinochloa crus-galli [11]) [%]","herbicidal effect, Crabgrass (crabgrass [12]) [%]","herbicidal effect, Chenopodium album (Chenopodium album [13]) [%]","herbicidal effect, Crabgrass (crabgrass [14]) [%]","herbicidal effect, Amaranthus viridis (Amaranthus viridis [15]) [%]","herbicidal effect, Echinochloa crus-galli (Echinochloa crus-galli [16]) [%]"
CC(C)N(C(=O)n1cnn(S(=O)(=O)C2CCC2)c1=O)c1ccc(F)cc1F [Compound 11-258],100,100,100,100,90,90,90,90,100,100,100,100,80,90,90,80
CC(C)N(C(=O)n1cnn(S(=O)(=O)C2CC2)c1=O)c1ccc(F)cc1 [Compound 11-162],100,90,90,90,90,80,80,90,90,80,80,90,80,90,90,80
CC(C)CN(C)S(=O)(=O)n1ncn(C(=O)N(c2ccc(F)cc2F)C(C)C)c1=O [Compound 11-1101],90,90,90,90,90,80,80,90,90,80,80,90,80,90,90,80
CCS(=O)(=O)n1ncn(C(=O)N(c2c(F)cc(F)cc2F)C(C)C)c1=O [Compound 11-1154],100,100,100,100,100,80,90,80,90,80,100,100,80,100,30,100
CC(C)N(C(=O)n1cnn(S(=O)(=O)C2CC2)c1=O)c1cccc(F)c1F [Compound 11-189],100,100,90,90,100,80,100,100,100,90,100,100,80,100,60,100
Cc1cc(C)c(S(=O)(=O)n2ncn(C(=O)N(c3ccc(F)cc3F)C(C)C)c2=O)c(C)c1 [Compound 11-863],100,100,100,100,90,90,90,90,50,50,60,70,70,60,50,70
CC(C)N(C(=O)n1cnn(S(=O)(=O)C(C)C)c1=O)c1c(F)cccc1F [Compound 11-61],100,100,80,100,100,100,100,80,90,80,100,100,70,100,70,100
CC(C)N(C(=O)n1cnn(S(=O)(=O)C2CCCCC2)c1=O)c1ccc(F)c(F)c1F [Compound 11-297],100,100,90,100,100,70,100,100,100,70,90,90,60,100,90,100
